# From patent publication US20230165866A1, “CYCLOSERINE AND PENTOXIFYLLINE COMBINATION THERAPY FOR TREATMENT OF DEPRESSION” (NEURORIVE INC, priority 2020, published 2023)
# Columns and labels:
# mice (C57BL/6) = test: Forced swimming test (FST); assay type: in vivo, mouse; conditions: C57BL/6 mice, oral; DCS alone 10 mg/kg, pentoxifylline alone 80 mg/kg, combination DCS 10 mg/kg + pentoxifylline 10, 20, 80, 160 mg/kg; FST an hour after administration; immobility time in last 4 min of 6 min
# Description: In order to test an effect of reducing depression depending on administration of the composite composition of the present invention, mice were performed to a forced swimming test (FST). The FST, which is to measure a coping strategy for acute stress that inevitably occurs, is an animal behavioral experiment commonly used to measure antidepressant effects. To confirm the effect of reducing depression by combined administration of D-cycloserine (DCS) and pentoxifylline (Pen), each group of mice was administered orally with the vehicle (DW 5 ml/kg), DCS (administered alone at 10 mg/kg), pentoxifylline (administered alone at 80 mg/kg) and DCS+pentoxifylline (DCS 10 mg/kg and pentoxifylline 10, 20, 80, 160 mg/kg combination treatment group). After administration, the forced swimming test (FST) that measures depression-like behavior was performed on the mice. Specifically, each mice group (C57BL/6) was individually placed in a 3 L Pyrex beaker (13 cm in diameter, 24 cm in height), and the beakers were filled with 26° C. of water up to a depth of 9 cm. All mice were forced to swim for 6 minutes, and immobility time was measured for the last 4 minutes of the experiment. The immobility time is defined as the […] time taken while the mouse is floating without struggling or taking only the movement required for keeping the mouse's head above the water surface.
# mice (C57BL6) = test: Tail suspension test (TST); assay type: in vivo, mouse; conditions: DCS alone 10 mg/kg, pentoxifylline alone 80 mg/kg, combination DCS 10 mg/kg + pentoxifylline 10, 20, 80, 160 mg/kg, TST 1 hour after administration, immobility time over 6 min
# Text: In order to test an effect of reducing depression depending on administration of the composite composition of the present invention, mice were subjected to a tail suspension test (TST). The TST, which is to measure a stress in a rodent animal model, is based on the behavior of an experimental animal facing immobile posture in the face of short-term, irreversible stress. In the technical field of the present invention, the TST is used to measure the effect of antidepressant. To confirm the effect of reducing depression by combined administration of D-cycloserine (DCS) and pentoxifylline (Pen), DCS, Pen alone or a composite composition were administered to all groups of mice (C57BL6). Each group of mice was administered with the vehicle (DW 5 ml/kg), DCS (administered alone at 10 mg/kg), pentoxifylline (administered alone at 80 mg/kg), and DCS+pentoxifylline (DCS 10 mg/kg and pentoxifylline 10, 20, 80, 160 mg/kg combination treatment group). After 1 hour, the tail suspension test (TST) that measures depression-like behavior was performed on the mice. […] The experiment started as soon as the mouse was hung, and the immobility time was measured for 6 minutes after the start of the experiment. […]
Compound,immobility in FST compared to the control group administered with the vehicle (mice (C57BL/6)),immobility in TST compared to the control group administered with the vehicle (mice (C57BL6))
"N[C@@H]1CONC1=O [DCS, D-cycloserine]",did not show significantly different in immobility,did not show statistical significance
CC(=O)CCCCn1c(=O)c2c(ncn2C)n(C)c1=O [pentoxifylline],did not show significantly different in immobility,did not show statistical significance
